# Data published in PMC10623575, “Discovery of Potent and Selective CB2 Agonists Utilizing a Function-Based Computational Screening Protocol” (ACS Chemical Neuroscience, 2023).
# Read-outs that look alike come from different tables or passages of the source.
# Legend:
# CB1 receptor = CB1 receptor (Homo sapiens, UniProt P21554); assay: Calcium mobilization assay, agonist mode, CHO expressing CB1 and Gα16; format: cell-based; conditions: agonist activity, CHO expressing CB1, mean ± SEM; read-out: CB1 EC50
# Sequence of CB1 receptor (P21554 whole entry): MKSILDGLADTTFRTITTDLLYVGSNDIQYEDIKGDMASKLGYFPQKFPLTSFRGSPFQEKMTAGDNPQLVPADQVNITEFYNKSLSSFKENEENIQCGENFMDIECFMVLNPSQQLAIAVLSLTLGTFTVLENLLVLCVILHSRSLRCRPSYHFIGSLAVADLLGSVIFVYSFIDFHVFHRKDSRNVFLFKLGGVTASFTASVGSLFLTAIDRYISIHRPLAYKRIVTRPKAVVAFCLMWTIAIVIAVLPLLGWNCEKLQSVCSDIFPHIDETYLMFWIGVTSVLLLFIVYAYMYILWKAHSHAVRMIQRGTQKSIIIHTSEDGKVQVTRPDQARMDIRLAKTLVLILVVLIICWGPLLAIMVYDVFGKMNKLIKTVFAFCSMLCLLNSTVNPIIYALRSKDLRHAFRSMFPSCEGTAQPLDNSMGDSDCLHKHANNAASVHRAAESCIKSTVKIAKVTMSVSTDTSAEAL
# Protocol: (§1) Chinese hamster ovarian (CHO) cells collected from the American Type Culture Collection were maintained in Ham’s F-12K (Kaighn’s) supplemented with 100 mg/L streptomycin, 100 mg/L penicillin, and 10% fetal bovine serum (FBS) in a humidified atmosphere of 5% CO2 at 37 °C. CHO cells were co-transfected with plasmids encoding CB1 or CB2 and Gα16 by electroporation. To establish stable cell lines, transfected cells were seeded on 10 cm dishes with 40 μg/mL blasticidin and 1 mg/mL G418 in culture medium after 24 h. The selection medium was substituted once every 3 days until colonies formed. A solitary colony was obtained, propagated, and assessed using a calcium mobilization assay to verify the function and expression of the transfected genes.
# (§2) 3 × 10^4 cells/well were employed to seed cells onto 96-well plates, which were subsequently incubated throughout the night. […] For antagonist mode, the extra dye was washed out and 50 μL of HBSS with test compounds, DMSO (negative control), or AM630 (positive control) was introduced. […] To be noticed, each experiment has been independently replicated three times, with three repetitions and eight gradients each time.
# (§3) The collected data were processed with GraphPad Prism software (GraphPad). […] Means ± SEM were computed utilizing this software. The analyses were evaluated by the Student t test. When the p value is smaller than 0.05, the result is statistically significant.
# CB2 receptor = target: T1, CB2 receptor (Homo sapiens, UniProt P34972); assay: Calcium mobilization assay, agonist mode, CHO expressing CB2 and Gα16; format: cell-based; conditions: for SI, selectivity index for the CB2, SI = EC50(CB1)/EC50(CB2): agonist mode
# T1 construct: expressed in transfected cells
# T1 sequence (P34972 whole entry): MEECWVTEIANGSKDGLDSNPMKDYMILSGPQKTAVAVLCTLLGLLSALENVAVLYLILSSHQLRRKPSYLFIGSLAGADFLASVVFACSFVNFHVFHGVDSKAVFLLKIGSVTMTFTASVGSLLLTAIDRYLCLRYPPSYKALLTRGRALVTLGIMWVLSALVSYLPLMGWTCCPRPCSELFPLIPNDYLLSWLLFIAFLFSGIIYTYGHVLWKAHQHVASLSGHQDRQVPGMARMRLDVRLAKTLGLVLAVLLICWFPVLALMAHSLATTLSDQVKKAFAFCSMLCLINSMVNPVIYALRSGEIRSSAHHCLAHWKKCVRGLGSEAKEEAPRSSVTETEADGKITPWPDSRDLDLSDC
# Protocol: as §1, §2, §3
# [1] = agonist activity, CHO expressing CB2, three independent assays, mean ± SEM, read-out: CB2 EC50
# [2] = single independent experiment, replicate 1, read-out: CB2 agonist(μM) replicate 1
# [3] = single independent experiment, replicate 2, read-out: CB2 agonist(μM) replicate 2
# [4] = single independent experiment, replicate 3, read-out: CB2 agonist(μM) replicate3
SMILES,EC50 (CB1 receptor) [µM],EC50 (CB2 receptor; [1]) [µM],"SI, selectivity index for the CB2, SI = EC50(CB1)/EC50(CB2) (CB2 receptor)",EC50 (CB2 receptor; [2]) [µM],EC50 (CB2 receptor; [3]) [µM],EC50 (CB2 receptor; [4]) [µM]
"CC(C)N1C(=O)SC(=Cc2cccc(OCc3ccccc3C#N)c2)C1=O [Compound 25, 2-((3-((3-Isopropyl-2,4-dioxothiazolidin-5-ylidene)methyl)phenoxy)methyl) Benzonitrile]",> 10,> 10,,,,
"CC(C)CN1C(=O)SC(=Cc2cccc(OCc3ccccc3C#N)c2)C1=O [Compound 26, 2-((3-((3-Isobutyl-2,4-dioxothiazolidin-5-ylidene)methyl)phenoxy)methyl) Benzonitrile]",> 10,> 10,,,,
"N#Cc1ccccc1COc1cccc(C=C2SC(=O)N(C3CCCC3)C2=O)c1 [Compound 27, 2-((3-((3-Cyclopentyl-2,4-dioxothiazolidin-5-ylidene)methyl)phenoxy)methyl) Benzonitrile]",> 10,> 10,,,,
"COc1ccc(C=C2SC(=O)N(C(C)C)C2=O)cc1OC(=O)c1cccc(Br)c1 [Compound 28, 5-((3-Isopropyl-2,4-dioxothiazolidin-5-ylidene)methyl)-2-methoxyphenyl 3-Bromobenzoate]",> 10,2.96 ± 2.3,>3,0.637,7.56,0.693
"COc1ccc(C=C2SC(=O)N(C(C)C)C2=O)cc1OC(=O)c1ccccc1F [Compound 29, 5-((3-Isopropyl-2,4-dioxothiazolidin-5-ylidene)methyl)-2-methoxyphenyl 2-Fluorobenzoate]",> 10,> 10,,,,
"COc1ccc(/C=C2\SC(=O)N(C(C)C)C2=O)cc1OC(=O)c1ccc(CCl)cc1 [Compound 30, 5-((3-Isopropyl-2,4-dioxothiazolidin-5-ylidene) Methyl)-2-methoxyphenyl 4-(Chloromethyl) Benzoate]",> 10,> 10,,,,
"COc1ccc(C=C2SC(=O)N(C(C)C)C2=O)cc1OC(=O)C(C)(C)CCl [Compound 31, 5-((3-Isopropyl-2,4-dioxothiazolidin-5-ylidene) Methyl)-2-methoxyphenyl 3-Chloro-2,2-dimethylpropanoate]",> 10,3.38 ± 2.15,>3,0.814,1.68,7.65
"COc1ccc(/C=C2\SC(=O)N(C(C)C)C2=O)cc1OC(=O)C12CC3CC(CC(C3)C1)C2 [Compound 32, 5-((3-Isopropyl-2,4-dioxothiazolidin-5-ylidene) Methyl)-2-methoxyphenyl (3r, 5r, 7r)-Adamantane-1-carboxylate]",> 10,0.83 ± 0.65,>12,0.093,0.287,2.12
"CCCC(=O)Oc1cc(C=C2SC(=O)N(C(C)C)C2=O)ccc1OC [Compound 33, 5-((3-Isopropyl-2,4-dioxothiazolidin-5-ylidene)methyl)-2-methoxyphenylbuty Rate]",> 10,> 10,,,,
"COc1ccc(C=C2SC(=O)N(CC(C)C)C2=O)cc1OC(=O)C(C)(C)CCl [Compound 34, 5-((3-Isobutyl-2,4-dioxothiazolidin-5-ylidene)methyl)-2-methoxyphenyl 3-Chloro-2,2-dimethylpropanoate]",> 10,> 10,,,,
"COc1ccc(C=C2SC(=O)N(CC(C)C)C2=O)cc1OC(=O)c1cccc(Br)c1 [Compound 35, 5-((3-Isobutyl-2,4-dioxothiazolidin-5-ylidene)methyl)-2-methoxyphenyl 3-Bromobenzoate]",> 10,> 10,,,,
"COc1ccc(C=C2SC(=O)N(CC(C)C)C2=O)cc1OC(=O)c1ccc(CCl)cc1 [Compound 36, 5-((3-Isobutyl-2,4-dioxothiazolidin-5-ylidene)methyl)-2-methoxyphenyl 4-(Chloromethyl)benzoate]",> 10,> 10,,,,
